Test results taken from the NIST ThermoML archive (doi:10.1016/j.jct.2016.03.012).
± gives the expanded uncertainty stated by the source.

Test: wn = mass fraction of the nth substance listed
Settings: 101 kPa, Liquid; for viscosity: Capillary tube (Ostwald / Ubbelohde) method; for speed of sound: Frequency=3 MHz, Linear variable-path acoustic interferometer; for mass density: Pycnometric method

O=C[C@@H](O)[C@@H](O)[C@H](O)[C@H](O)CO [D-mannose] + O
Settings | mass density, w1 = 0.025 [kg/m3] | mass density, w1 = 0.05 [kg/m3] | speed of sound, w1 = 0.025 [m/s] | speed of sound, w1 = 0.05 [m/s] | viscosity, w1 = 0.025 [mPa·s] | viscosity, w1 = 0.05 [mPa·s]
293.15 K | – | 1017.15 ± 1.3 | 1495.7 ± 3.4 | 1508.3 ± 3.4 | 1.074 ± 0.025 | 1.146 ± 0.026
298.15 K | – | 1016.04 ± 1.3 | 1506.6 ± 3.4 | 1516.6 ± 3.4 | 0.9514 ± 0.022 | 1.007 ± 0.023
303.15 K | 1005.29 ± 1.3 | 1014.73 ± 1.3 | 1516.9 ± 3.4 | 1525.2 ± 3.4 | 0.8479 ± 0.019 | 0.8925 ± 0.021
308.15 K | 1003.71 ± 1.3 | 1013.21 ± 1.3 | 1526.9 ± 3.4 | 1534.1 ± 3.4 | 0.7636 ± 0.017 | 0.8017 ± 0.018
313.15 K | 1001.93 ± 1.3 | 1011.5 ± 1.3 | 1535.2 ± 3.4 | 1542.6 ± 3.4 | 0.6922 ± 0.016 | 0.7265 ± 0.017
318.15 K | 999.95 ± 1.3 | 1009.58 ± 1.3 | 1543 ± 3.4 | 1551 ± 3.4 | 0.6347 ± 0.015 | 0.6654 ± 0.015
